Source: patent US4312870A, “Pyrazoloquinolines” (Ciba-Geigy Corporation, priority 1980, dated 1982)

Target: Diazepam Receptor
Experiment: Diazepam Receptor Binding Assay in vitro (tritiated diazepam, rat fore-brain membranes)
Settings: membranes from rat fore-brain, 0°-5°, pH=7.5, determined graphically; read-out: IC50, concentration required to inhibit the specific binding of 2 nM of tritiated diazepam by 50%
Protocol: The anxiolytic effects of said new compounds can also be estimated by the Diazepam Receptor Binding Assay in vitro, e.g. as described in Nature 266, 732 (1977) or Proc. Nat. Acad. Sci. USA 74, 3805 (1977). Diazepam binds specifically and with high affinity to crude synaptosomal membrane preparations from rat fore-brain. […] When tritiated diazepam is used, the interaction of other drugs with said receptor can be readily assessed thus: Membranes from rat fore-brain are incubated at 0°-5° with tritiated diazepam and various concentrations of the test substances in a physiological medium at the pH=7.5. The membranes, containing the receptors with various amounts of tritiated diazepam, are filtered onto glass fiber filters, which are then […] in a liquid scintillation counter.

Structure (SMILES) | IC50
CN1C(=O)CN=C(c2ccccc2)c2cc(Cl)ccc21 [diazepam] | 5 nM
CNC1=Nc2ccc(Cl)cc2C(c2ccccc2)=[N+]([O-])C1 [chlordiazepoxide] | 400 nM
